Measurements: PMC2912498 (Cancer research, 2010)
Where two headings read alike, the source gives them in different places.

How the values were obtained:
[1] = system: TCF-dependent transcription; assay type: cell-based, human; conditions: read-out: Reporter IC50; 7dF3 reporter activity
HT29 (APC mutant) = assay type: cell-based, human; conditions: read-out: HT29 (APC mutant) GI50; 72h
[2] = system: HCT116 (oncogenic β-catenin); assay type: cell-based, human; conditions: read-out: HCT116 (oncogenic β-catenin) GI50; 72h
SW480 (APC mutant) = assay type: cell-based, human; conditions: read-out: SW480 (APC mutant) GI50; 72h
SNU475 (Axin mutant) = assay type: cell-based, human; conditions: read-out: SNU475 (Axin mutant) GI50; 96h
CCD841Co (Control) = assay type: cell-based, human; conditions: read-out: CCD841Co (Control) GI50; 96h; >> = no growth inhibition at the highest concentration tested
[3] = system: HCT116 human colon cancer cell; assay type: cell-based
β-catenin [4] = assay type: cell-based, mouse
[5] = system: U2OS GFP-β-catenin human osteosarcoma cells; assay type: cell-based
[6] = system: TCF-dependent transcription; assay type: cell-based, human
β-catenin [7] = assay type: cell-based, mouse; remark: listed apart in the source
[8] = system: GSK-3 dependent Tau phosphorylation; assay type: cell-based, human
recombinant GSK3 = assay type: biochemical
PP1 = assay type: biochemical
PP2A = assay type: biochemical
Tyrosine Phosphatase = assay type: biochemical
free β-catenin [9] = assay type: cell-based, human; conditions: SW480 cells
free β-catenin [10] = assay type: cell-based, human
[11] = system: TCF-dependent transcription; assay type: cell-based, human; remark: listed apart in the source
c-myc promoter = assay type: cell-based, human
survivin promoter = assay type: cell-based, human
LEF-1 mRNA = assay type: cell-based, human
Xenopus laevis embryos = assay type: in vivo; conditions: added at the 4-16 cell stage
Zebrafish embryos = assay type: in vivo; conditions: added at the 16-cell stage

Substance: CCT031374
- IC50 [1]: 6.1 µM
- GI50 (HT29 (APC mutant)): 11.5 µM
- GI50 [2]: 13.9 µM
- GI50 (SW480 (APC mutant)): 13.2 µM
- GI50 (SNU475 (Axin mutant)): 9.6 µM
- GI50 (CCD841Co (Control)): > 44 µM
- apoptosis shown by caspase 3 activity [3]: inducing apoptosis
- caspase activity relative to the other compounds [3]: almost two times more caspase activity than the other compounds
- BIO-induced accumulation / levels of β-catenin (β-catenin [4]): prevented BIO-induced accumulation of β-catenin
- degradation of endogenous wild-type β-catenin stabilized by BIO (β-catenin [4]): increased the degradation
- degradation of β-catenin stabilized by Wnt-3A and LiCl (β-catenin [4]): resistant to degradation
- degradation of β-catenin stabilized with MG132 (β-catenin [4]): not degraded
- nuclear and cytosolic β-catenin pools (β-catenin [4]): reduction in both nuclear and cytosolic β-catenin pools
- time to reduce levels of BIO-stabilized β-catenin (β-catenin [4]): ≤ 60 min
- β-catenin N-terminal phosphorylation (β-catenin [4]): did not increase β-catenin N-terminal phosphorylation
- β-catenin degradation products characteristic of calpain-induced proteolysis (β-catenin [4]): failed to induce β-catenin degradation products
- formation of GFP-β-catenin aggregates [5]: induced formation of GFP-β-catenin aggregates
- TCF-dependent transcription induced by stabilized β-catenin (N-terminal deletion of 89 amino acids) [6]: blocked TCF-dependent transcription
- time to increased β-catenin degradation (pulse chase) (β-catenin [7]): ≤ 10 min
- reversal of the BIO block of Tau phosphorylation ([8]; HEK293, BIO plus 20μM CCT031374): largely failed to reduce the BIO block of Tau phosphorylation
- inhibition of recombinant GSK3 (recombinant GSK3): did not inhibit
- PP1 enzyme activity (PP1): no activity
- PP2A enzyme activity (PP2A): no activity
- Tyrosine Phosphatase enzyme activity (Tyrosine Phosphatase): no activity
- free β-catenin levels (free β-catenin [9]): not altered
- free β-catenin levels (free β-catenin [10]): blocked free β-catenin levels
- TCF-dependent transcription (Topflash) [11]: reduced TCF-dependent transcription
- activity against c-myc promoter luciferase reporter (c-myc promoter): showed activity
- activity against survivin promoter luciferase reporter (survivin promoter): showed activity
- endogenous LEF-1 mRNA levels (LEF-1 mRNA): showed activity against endogenous LEF-1 mRNA levels
- effect on Xenopus embryo development (Xenopus laevis embryos): did not show clear responses
- effect on Zebrafish embryo development (Zebrafish embryos): did not show clear responses

Substance: 6-bromoindirubin-3′-oxime [BIO, reference compound]
- GSK-3 dependent Tau phosphorylation on Thr-181 ([8]; HEK293): reduce GSK-3 dependent Tau phosphorylation on Thr-181
